According to patent US20090181931A1, “ANTIVIRAL ACTIVITY OF CIDOFOVIR AGAINST ONCOLYTIC VIRUSES” (priority 2008, published 2009):
pEC50: −log10 of the molar value. “And” between values parts separate entries of the source, which are not always exact repeats. Identical values can stand only once.

Assays:
[1] = XTT cell viability assay, CDV alone, A549 cells; type: cell-based; settings: human; A549 cells, XTT; read-out: CC50, CDV concentration that reduce the relative cell viability to 50%
Procedure: (§1) Cells frozen in liquid nitrogen were thawed in water bath at 37° C., seeded at T25 flask, and cultured at 70-90% sub-confluent monolayer. Cells were detached with trypsin, and prepared suspension at a concentration of 1.0×10^4 cells/ml.
(§2) Cells were seeded in 96 well-plate (100 μL/well, 1000 cells/well), then cultured with 5% CO2 at 37° C.
(§3) Viruses were diluted at MOI of 1 (OBP-301, OBP-202) in H1299 and 5 in A549 (PFU/cell). Medium in each well was removed, 150 μL of diluted virus solution was added to each well of the plate. 2 hours later, medium was aspirated and replaced with fresh medium containing 2% FCS and serially diluted CDV. Cells were incubated with 5% CO2 at 37° C. for 7 days after infection.
(§4) 100 μL of PBS, 50 μL of XTT labeling reagent, and 1 μL of ion coupling reagent per well of plate were mixed.
(§5) Medium in each well of plate was removed, and 150 μL of mixture prepared above was added to each well. Plate was incubated with 5% CO2 at 37° C. for 4 hours, and then calculated absorbance at 450 nm and 690 nm. Protection was determined by the formula below: […]

A549 cells = assay: XTT cell viability assay, CDV alone, A549 cells; type: cell-based; settings: for Relative cell viability Ave. / Relative cell viability: A549, no virus, 7 days; for Relative cell viability: single wells, dihydrate
Procedure: as §1, §2, §3, §4, §5

Telomelysin (OBP-301) = assay: XTT assay, protection from cytopathic effect of Telomelysin in H1299 cells; type: cell-based, adenovirus; settings: for Protection (%) Ave. / Protection (%): Telomelysin MOI 1, H1299, 7 days; for Protection (%): single wells, dihydrate
Procedure: as §1, §2, §3, §4
(§6) Medium in each well of plate was removed, and 150 μL of mixture prepared above was added to each well. Plate was incubated with 5% CO2 at 37° C. for 4 hours, and then calculated absorbance at 450 nm and 690 nm. Protection was determined by the formula below:
(§7) Protection(%)={OD(AdV(+):CDV(+))−OD(AdV(+):CDV(−))}/{OD(AdV(−):CDV(+))−OD(AdV(+):CDV(−))}×100.

TelomeScan (OBP-401) = assay: XTT assay, protection from cytopathic effect of TelomeScan (OBP-401) in H1299 cells; type: cell-based, adenovirus; settings: for Protection (%) Ave. / Protection (%): OBP-401 MOI 0.1, H1299, 7 days; for Protection (%): single wells, dihydrate
Procedure: as §1, §2
as §3, with “0.1 (OBP-401) or 10 (ONYX-015)” for “1 (OBP-301, OBP-202)”, “H1299.” for “H1299 and 5 in A549 (PFU/cell).”, “50” for “150”
as §4, §6, §7

ONYX-015 = assay: Real-time quantitative PCR, viral E1A copy number, ONYX-015 in H1299 cells; type: cell-based, adenovirus; settings: for E1A copy number, % (relative to 0 uM) / E1A copy number/ng DNA: ONYX-015 MOI 10, H1299, 24 hours
Procedure: Cells were seeded in 6-well plate (2 mL/well, 2×10^5 cells/well), and incubated with 5% CO2 at 37° C.
Viruses were diluted at a MOI of 10. Medium in each well was removed, 500 μL of diluted virus solution was added to each well of the plate. Plates were incubated with 5% CO2 at 37° C. for 2 hours with gently shaking every 15 minutes. Medium was aspirated, washed with PBS twice, and replaced with fresh medium containing 2% FCS and serially diluted CDV. Cells were incubated with 5% CO2 at 37° C. for 24 hours after infection.
Cells were detached with Trypsin-EDTA, and collected by centrifuging. Total DNA was extracted using QIAamp™ DNA Mini Kit according to manufacture's instructions with some modifications: addition of 20 μL of RNaseA in each sample when adding ProK. DNA was eluted by 50˜100 μL of D. W.
Concentration of DNA was determined by measuring O.D.260. Each DNA samples was diluted by D. W. at a concentration of 5 ng/μL.
Master-mix for E1A primer was prepared using LightCycler™ Faststart DNAMaster SYBR Green™ according to Table 1. Standard DNA was prepared by serially 10 times dilution of pCRII-E1A plasmid (1×10^9, 1×10^8, 1×10^7, 1×10^6, 1×10^5, 1×10^4, and 1×10^3 copies/μL). 2 μL of Sample or Standard DNA was and 18 μL of Master mix were added into capillaries (total volume was 20 μL per capillary).
Q-PCR was performed according to the program of Table 2 (LightCycler quicksystem 350S). Results obtained here were analyzed using LightCycler softwere.

SMILES: Nc1ccn(C[C@@H](CO)OCP(=O)(O)O)c(=O)n1.O.O [CDV, 1-[(S)-3-hydroxy-2-(phosphonomethoxy)propyl]cytosine dihydrate]
- CC50 at 7 days [1]: 107 µM
- toxicity of CDV itself (A549 cells; A549 cells, high concentrations): toxic
- Relative cell viability Ave. (A549 cells; CDV 10 μM): 0.969
- Relative cell viability (A549 cells; CDV 10 μM): 0.993 and 0.938 and 0.962 and 0.982
- Relative cell viability Ave. (A549 cells; CDV 20 μM): 0.935
- Relative cell viability (A549 cells; CDV 20 μM): 0.982 and 0.877 and 0.924 and 0.958
- Relative cell viability Ave. (A549 cells; CDV 30 μM): 0.912
- Relative cell viability (A549 cells; CDV 30 μM): 0.944 and 0.883 and 0.881 and 0.939
- Relative cell viability Ave. (A549 cells; CDV 40 μM): 0.908
- Relative cell viability (A549 cells; CDV 40 μM): 0.951 and 0.860 and 0.910 and 0.911
- Relative cell viability Ave. (A549 cells; CDV 50 μM): 0.852
- Relative cell viability (A549 cells; CDV 50 μM): 0.819 and 0.842 and 0.862 and 0.884
- Relative cell viability Ave. (A549 cells; CDV 60 μM): 0.798
- Relative cell viability (A549 cells; CDV 60 μM): 0.755 and 0.792 and 0.809 and 0.837
- Relative cell viability Ave. (A549 cells; CDV 70 μM): 0.720
- Relative cell viability (A549 cells; CDV 70 μM): 0.709 and 0.703 and 0.747 and 0.719
- Relative cell viability Ave. (A549 cells; CDV 80 μM): 0.696
- Relative cell viability (A549 cells; CDV 80 μM): 0.656 and 0.707 and 0.737 and 0.683
- Relative cell viability Ave. (A549 cells; CDV 90 μM): 0.544
- Relative cell viability (A549 cells; CDV 90 μM): 0.502 and 0.552 and 0.606 and 0.518
- Relative cell viability Ave. (A549 cells; CDV 100 μM): 0.471
- Relative cell viability (A549 cells; CDV 100 μM): 0.511 and 0.451 and 0.482 and 0.438
- Protection (%) Ave. (Telomelysin (OBP-301); CDV 0.32 μM): 7.983%
- Protection (%) (Telomelysin (OBP-301); CDV 0.32 μM): 10.293% and 11.665% and 3.980% and 5.993%
- Protection (%) Ave. (Telomelysin (OBP-301); CDV 1.6 μM): 0.274%
- Protection (%) (Telomelysin (OBP-301); CDV 1.6 μM): 3.339% and −5.901% and 1.144% and 2.516%
- Protection (%) Ave. (Telomelysin (OBP-301); CDV 8 μM): 3.065%
- Protection (%) Ave. (Telomelysin (OBP-301); CDV 40 μM): 83.829%
- Protection (%) (Telomelysin (OBP-301); CDV 40 μM): 88.243% and 72.049% and 84.950% and 90.073%
- Protection (%) Ave. (Telomelysin (OBP-301); CDV 200 μM): 29.369%
- Protection (%) (Telomelysin (OBP-301); CDV 200 μM): 29.414% and 30.878% and 28.957% and 28.225%
- Telomelysin-mediated cytopathic effect (Telomelysin (OBP-301); H1299 cells, FIG. 1A): apparently inhibited
- pEC50 (Telomelysin (OBP-301); NCI-H1299, Telomelysin, H1299 cells, XTT, read-out: EC50, CDV concentration that archive the protection to 50%): 4.69
- Protection (%) Ave. (TelomeScan (OBP-401); CDV 0.01 μM): −0.229%
- Protection (%) (TelomeScan (OBP-401); CDV 0.01 μM): −1.063% and 0.309% and −0.240% and 0.080%
- Protection (%) Ave. (TelomeScan (OBP-401); CDV 0.06 μM): 0.057%
- Protection (%) (TelomeScan (OBP-401); CDV 0.06 μM): −0.423% and −0.514% and 1.589%
- Protection (%) Ave. (TelomeScan (OBP-401); CDV 0.32 μM): 0.171%
- Protection (%) (TelomeScan (OBP-401); CDV 0.32 μM): 0.400% and 0.674% and −0.789%
- Protection (%) Ave. (TelomeScan (OBP-401); CDV 1.6 μM): 1.931%
- Protection (%) (TelomeScan (OBP-401); CDV 1.6 μM): 3.006% and −0.057% and 2.594% and 2.183%
- Protection (%) Ave. (TelomeScan (OBP-401); CDV 8 μM): 0.469%
- Protection (%) (TelomeScan (OBP-401); CDV 8 μM): 3.280% and 0.263% and −0.743% and −0.926%
- Protection (%) Ave. (TelomeScan (OBP-401); CDV 40 μM): 40.926%
- Protection (%) Ave. (TelomeScan (OBP-401); CDV 200 μM): 15.154%
- Protection (%) Ave. (TelomeScan (OBP-401); CDV 1000 μM): 1.463%
- Protection (%) (TelomeScan (OBP-401); CDV 1000 μM): 0.446% and 0.537% and 3.554% and 1.314%
- cytopathic effect induced by TelomeScan (TelomeScan (OBP-401); H1299 cells, FIG. 2A): apparently inhibited
- E1A copy number, % (relative to 0 uM) (ONYX-015; CDV 0.16 uM): 86.98%
- E1A copy number/ng DNA (ONYX-015; CDV 0.16 uM): 2.291E+07 copy number/ng DNA
- E1A copy number, % (relative to 0 uM) (ONYX-015; CDV 0.8 uM): 91.04%
- E1A copy number/ng DNA (ONYX-015; CDV 0.8 uM): 2.398E+07 copy number/ng DNA
- E1A copy number, % (relative to 0 uM) (ONYX-015; CDV 4 uM): 83.71%
- E1A copy number/ng DNA (ONYX-015; CDV 4 uM): 2.205E+07 copy number/ng DNA
- E1A copy number, % (relative to 0 uM) (ONYX-015; CDV 20 uM): 45.10%
- E1A copy number/ng DNA (ONYX-015; CDV 20 uM): 1.188E+07 copy number/ng DNA
- E1A copy number, % (relative to 0 uM) (ONYX-015; CDV 100 uM): 11.20%
- E1A copy number/ng DNA (ONYX-015; CDV 100 uM): 2.950E+06 copy number/ng DNA
- Viral E1A copy number (ONYX-015; ONYX-015, H1299 cells, dose-dependent manner): reduced
